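Results reflect a 48-hour exposure of cells in 96-well plates to compound at five concentrations. Definition used: TGI = concentration required for complete inhibition of growth.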 Where a SMILES comes first, the peptide text is derived from it. The star is where a group is joined. Boc = CC(C)(C)OC(=O)*
Assays:
Experiment in all cases: NCI tumour cell line growth inhibition, 48 h
ACHN renal = test system: ACHN renal
COLO 205 colon = test system: COLO 205 colon
HOP-62 NSCLC = test system: HOP-62 NSCLC
M14 melanoma = test system: M14 melanoma
RPMI-8226 leukemia = test system: RPMI-8226 leukemia
SF-268 CNS = test system: SF-268 CNS
SK-MEL-28 melanoma = test system: SK-MEL-28 melanoma
SNB-75 CNS = test system: SNB-75 CNS
SR leukemia = test system: SR leukemia
TK-10 renal = test system: TK-10 renal

Row | Compound | TGI (ACHN renal) | TGI (COLO 205 colon) | TGI (HOP-62 NSCLC) | TGI (M14 melanoma) | TGI (RPMI-8226 leukemia) | TGI (SF-268 CNS) | TGI (SK-MEL-28 melanoma) | TGI (SNB-75 CNS) | TGI (SR leukemia) | TGI (TK-10 renal)
1 | C/C=C1/CN2CCC34c5ccccc5N(C)C23C2CC1C4(C(=O)OC)C(OC(C)=O)O2 (stereo not given) | > 100 µM | > 100 µM | > 100 µM | > 100 µM | > 100 µM | > 100 µM | > 100 µM | > 100 µM | > 100 µM | > 100 µM
2 | Cc1ccc(/C=C/C(=O)Oc2ccc(/C=C3\CCC/C(=C\c4ccc(OC(=O)/C=C/c5ccc(C)cc5)cc4)C3=O)cc2)cc1 | > 100 µM | > 100 µM | > 100 µM | > 100 µM | > 100 µM | > 100 µM | > 100 µM | 36.3 µM | 96.4 µM | > 100 µM
3 | CC(=O)O[C@H]1C(=O)[C@@]2(C)[C@H]([C@H](OC(=O)c3ccccc3)[C@]3(O)C[C@H](OC(=O)[C@H](O)[C@@H](NC(=O)c4ccccc4)c4ccc5ccccc5c4)C(C)=C1C3(C)C)[C@]1(OC(C)=O)CO[C@@H]1C[C@@H]2O | > 50 µM | 0.319 µM | 0.362 µM | 1.85 µM | 1.87 µM | > 50 µM | > 23.1 µM | 2.15 µM | 1.85 µM | 18.6 µM
4 | Clc1ccc(CCNC2(c3cc4ccccc4s3)CCCCC2)cc1Cl | 63.3 µM | 49.2 µM | 84.3 µM | > 100 µM | 32.1 µM | > 100 µM | 87.2 µM | 49.3 µM | 32.5 µM | 65.9 µM
5 | Cn1c(-c2ccc(-c3cc(-c4cccs4)c(-c4cccs4)n3C)cc2)cc(-c2cccs2)c1-c1cccs1 | > 100 µM | > 100 µM | > 100 µM | > 100 µM | > 100 µM | > 100 µM | > 100 µM | > 100 µM | > 100 µM | > 100 µM
6 | COC(=O)C(Cc1ccccc1)NC(=O)C(CS)NC(=O)OC(C)(C)C (stereo not drawn) (Boc-Cys-Phe-OMe; configuration not given here) | > 100 µM | > 100 µM | > 100 µM | > 100 µM | > 100 µM | > 100 µM | > 100 µM | > 100 µM | > 100 µM | > 100 µM
7 | CC(C)C(Nc1ncnc2nc[nH]c12)C(=O)O (stereo not given) | > 100 µM | > 100 µM | > 100 µM | > 100 µM | > 100 µM | > 100 µM | > 100 µM | > 100 µM | > 100 µM | > 100 µM
